Test results taken from patent publication US6087376A (priority 1998, dated 2000).
“And” between values parts separate entries of the source, which are not always exact repeats. Equal values may be shown once. “Also recorded” adds a separate entry of the source. Read-outs that look alike come from different tables or passages of the source.

Experiments:
[1] = test system: nicotine (10 μM)-evoked [3H]overflow from rat striatal slices; assay: Mecamylamine antagonism of nicotine-evoked [3H]overflow from rat striatal slices; format: cell-based
Method: (§1) Rat striata were rapidly dissected on ice and were sliced using a McIlwain tissue chopper. […] Slices were rinsed with 15 mL fresh buffer and then incubated in fresh buffer containing 0.1 μM [^3 H]DA (6-8 slices/3 mL) for an additional 30 min. Subsequently, slices were rinsed with 15 mL fresh buffer and transferred to a glass superfusion chamber. […] After 60 min of superfusion when basal outflow was stabilized, two 5-min samples (5 mL) were collected to determine basal [^3 H]outflow.
To determine the ability of mecamylamine to antagonize nicotine-evoked [^3 H]overflow, a repeated-measure design was utilized also. Individual slices were superfused with a single concentration (0.01-100 μM) of mecamylamine for 60 min, followed by 60 min of superfusion with nicotine (10 μM) in the presence of the various mecamylamine concentrations. One slice in each experiment was superfused in the absence of mecamylamine to determine the effect of nicotine alone. A control slice was superfused with buffer alone.
(§2) The pH and volume of the solubilized tissue samples were adjusted to those of the superfusate samples.
(§3) Fractional release for each superfusate sample was calculated by dividing the tritium collected in each sample by the total tritium present in the tissue at the time of sample collection. Fractional release was expressed as a percentage of total tritium in the tissue at the time of sample collection. Basal outflow was calculated from the average of the tritium collected in the two 5-min samples just before the addition of drug.
(§4) Inhibition of synaptosomal and vesicular [^3 H]DA uptake were analyzed by repeated-measures, one-way ANOVA, and by an iterative nonlinear least-squares curve-fitting program (GraphPAD-PRIZM; GraphPAD, San Diego, Calif.) to obtain IC50 values. Dunnett's post hoc test was used to compare treatment means to a single control mean. Also, Duncan's New Multiple Range Test or Fisher's LSD post hoc analysis were used to compare pairs of treatment means. Duncan's New Multiple Range Test was used when significant one-way ANOVA's were obtained or when significant main effects were obtained in the two-way ANOVA's. Fisher's LSD post hoc analysis is a more conservative test, which takes into account error which cumulates during multiple comparisons of pairs of means. Fisher's LSD analysis was used when the interaction term was significant in the two-way ANOVAs, specifically in the post hoc analysis of drug×time interactions. Statistical significance was reached when P<0.05 (two-tailed, unless otherwise indicated).

reserpine site on VMAT2 = details: read-out: IC50, inhibition of binding to the reserpine site; cited from earlier work
[2] = test system: rat striatal slices preloaded with [3H]DA; assay: [3H]DA release assay: drug-evoked [3H]overflow / fractional release from rat striatal slices preloaded with [3H]DA; format: cell-based
Method: as §1
The concentration-response for each drug was determined using a repeated-measures design.
as §2, §3, §4

[3] = target: T1, plasma membrane DA transporter (rat striatal synaptosomes) (Rattus norvegicus, UniProt P23977); assay: [3H]DA uptake assay, striatal synaptosomal preparation; format: biochemical; details: nicotine 0.001 nM-100 μM
T1 construct: from tissue; host or cells: rat striatum, synaptosomes
T1 sequence (P23977 whole entry): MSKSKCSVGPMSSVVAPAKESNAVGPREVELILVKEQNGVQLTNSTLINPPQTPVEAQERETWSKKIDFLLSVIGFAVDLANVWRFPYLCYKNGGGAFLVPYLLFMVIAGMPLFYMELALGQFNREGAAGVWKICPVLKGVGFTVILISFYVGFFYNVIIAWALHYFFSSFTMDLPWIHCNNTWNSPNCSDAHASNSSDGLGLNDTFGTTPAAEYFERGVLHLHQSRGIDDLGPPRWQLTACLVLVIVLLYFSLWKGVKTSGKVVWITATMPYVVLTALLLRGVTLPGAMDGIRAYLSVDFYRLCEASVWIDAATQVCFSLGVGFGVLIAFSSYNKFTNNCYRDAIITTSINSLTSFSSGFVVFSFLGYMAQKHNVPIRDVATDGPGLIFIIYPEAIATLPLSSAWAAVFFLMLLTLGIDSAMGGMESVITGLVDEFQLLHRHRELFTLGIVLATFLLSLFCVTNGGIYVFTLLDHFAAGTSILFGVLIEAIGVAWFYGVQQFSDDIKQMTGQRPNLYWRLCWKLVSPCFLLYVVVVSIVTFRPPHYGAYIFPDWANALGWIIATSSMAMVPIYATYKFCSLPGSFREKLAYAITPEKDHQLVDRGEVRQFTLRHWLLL
Method: The homogenate was centrifuged at 2,000×g for 10 min at 4° C. […] The final protein concentration was 400 μg/mL. The assay was performed in duplicate in a total volume of 500 μL. […] The incubation continued for 10 min at 34° C. The reaction was terminated by the addition of 3 mL cold assay buffer (without 1 mM catechol). Samples were rapidly filtered through a Whatman GF/B filter using a Brandel cell harvester (model MP-43 RS, Biochemical Research and Development Laboratories, Inc., Gaithersburg, Md.) and the filter was subsequently washed 3 times with 4 mL of cold assay buffer containing 1 mM catechol. Filters were previously soaked for 2 hrs in the cold assay buffer containing 1 mM catechol. […] Filters were placed into scintillation vials, 10 mL of scintillation cocktail was added and radioactivity was determined by scintillation spectrometry.
(§5) Inhibition of synaptosomal and vesicular [^3 H]DA uptake were analyzed by repeated-measures, one-way ANOVA, and by an iterative nonlinear least-squares curve-fitting program (GraphPAD-PRIZM; GraphPAD, San Diego, Calif.) to obtain IC50 values. Dunnett's post hoc test was used to compare treatment means to a single control mean. Also, Duncan's New Multiple Range Test or Fisher's LSD post hoc analysis were used to compare pairs of treatment means. […]

[4] = target: T2, synaptic vesicular monoamine transporter (VMAT2), rat striatal synaptic vesicles (Rattus norvegicus, UniProt Q01827); assay: [3H]DA uptake assay, striatal synaptic vesicles; format: biochemical; details: nicotine
T2 construct: from tissue; host or cells: rat striatum, synaptic vesicles
T2 sequence (Q01827 whole entry): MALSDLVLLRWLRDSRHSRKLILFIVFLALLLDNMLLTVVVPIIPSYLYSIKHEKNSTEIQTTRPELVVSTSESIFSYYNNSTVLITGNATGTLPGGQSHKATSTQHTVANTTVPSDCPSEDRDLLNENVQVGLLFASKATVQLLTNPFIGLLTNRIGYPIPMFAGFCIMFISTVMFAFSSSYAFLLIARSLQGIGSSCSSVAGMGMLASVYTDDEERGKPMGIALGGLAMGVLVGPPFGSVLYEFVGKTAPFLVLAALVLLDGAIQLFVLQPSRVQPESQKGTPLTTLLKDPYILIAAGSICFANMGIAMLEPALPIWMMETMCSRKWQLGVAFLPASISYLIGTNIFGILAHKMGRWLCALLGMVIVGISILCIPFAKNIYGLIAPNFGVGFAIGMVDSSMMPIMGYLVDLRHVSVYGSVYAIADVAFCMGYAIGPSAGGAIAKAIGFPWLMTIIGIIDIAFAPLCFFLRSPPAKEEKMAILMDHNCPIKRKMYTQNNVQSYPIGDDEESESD
Method: (§6) The homogenate was then centrifuged at 2,000×g for 10 min at 4° C. and the resulting supernatant was centrifuged at 10,000×g for 30 min at 4° C. Synaptosomes (buffy coat) were separated from the underlying mitochondria and cellular debris (reddish pellet) by gentle swirling in 2 mL of 0.32 M sucrose. The enriched synaptosome fraction (2.0 mL) was subjected to osmotic shock by addition of 7 mL distilled H2 0 and was homogenized with 5 up and down strokes of the TEFLON pestle. The osmolarity was restored by the addition of 900 μL of 0.25 M HEPES and 900 μL of 1.0 M neutral potassium-tatrate buffer (pH 7.5) followed by a 20 min centrifugation (20,000×g at 4° C.). The supernatant was then centrifuged for 60 min (55,000×g at 4° C.).
Samples were rapidly filtered through Whatman GF/F filters using the Brandel cell harvester.
as §5

[5] = target: central nicotinic receptors; details: read-out: Kd, binding to nicotinic receptors; cited from earlier work
[6] = test system: nicotinic receptors in mouse brain; details: in vivo; cited from earlier work
[7] = test system: locomotor activity in rats; details: rat, in vivo; cited from earlier work
[8] = test system: conditioned place preference in rats; details: rat, in vivo; cited from earlier work
[9] = test system: rat striatal slices preloaded with [3H]DA; details: cited from earlier work
[10] = test system: self-administration by rats; details: rat, in vivo; cited from earlier work
[11] = test system: nicotinic receptors in rat brain; details: in vivo; cited from earlier work
rat brain vesicles = details: cited from earlier work
VMAT2 knockout mice = details: mouse, in vivo; cited from earlier work
[12] = target: T3, vesicular monoamine transporter-2 (VMAT2), DTBZ/TBZ site, rat striatal vesicle membranes (Rattus norvegicus, UniProt Q01827); assay: [3H]DTBZ binding to rat striatal vesicles; details: 2 nM [3H]DTBZ
T3 construct: from tissue; host or cells: rat striatum, synaptic vesicles
T3 sequence (Q01827 whole entry): as above

[13] = test system: rat striatal synaptic vesicles; assay: [3H]DA release from striatal synaptic vesicles preloaded with [3H]DA; format: biochemical
Method: as §6
The final vesicle pellet from a pool of striata from three rats was resuspended in 3 mL of release assay buffer (in mM: 25 HEPES, 100 L-(+)-tartaric acid dipotassium salt, 0.05 EGTA, 0.10 EDTA, 2 Mg^2+ -ATP, and 1.7 ascorbic acid, pH 7.4) and then incubated with [^3 H]DA (0.3 μM) for 8 min at 37° C. […] [^3 H]DA efflux represents the net result of events, i.e., release and reuptake. […] The reaction was terminated by addition of 2.5 mL of ice-cold assay buffer containing 2 mM MgSO4. Samples were rapidly filtered through Whatman GF/F filters using the Brandel cell harvester.
The amount of drug-induced [^3 H]DA release from synaptic vesicles was calculated by subtracting the amount of tritium remaining in the drug-exposed samples from that remaining in the control samples (in the absence of drug). The amount of drug-induced [^3 H]DA release was then divided by the amount of tritium remaining in the control samples and was expressed as a percentage of control.
Concentration-response and kinetic data were analyzed by repeated-measures one-way ANOVA and between-group one-way ANOVA, respectively. When appropriate, Fisher's least significant difference post hoc test was used to determine significant differences between treatment means. IC50 and EC50 values were obtained by an iterative nonlinear least-squarescurve-fitting program (GraphPAD-PRIZM: GraphPAD, San Diego, Calif., U.S.A.) for one-site competition and sigmoidal concentration response, respectively. The t1/2 was obtained by an iterative nonlinear least-squares curve-fitting program for one-phase decay. KD and Bmax values were obtained by Scatchard analysis using an iterative linear least-squares curve-fitting program.

human VMAT2 [14] = details: read-out: Ki, inhibition of monoamine uptake; cited from earlier work
[15] = target: [3H]DTBZ binding site, rat striatal homogenates; details: read-out: Ki, inhibition of [3H]DTBZ binding; cited from earlier work
human VMAT2 [16] = details: read-out: Ki, inhibition of [3H]DTBZ binding; cited from earlier work
monoamine oxidase = details: cited from earlier work

For CNC1(C)C2CCC(C2)C1(C)C (stereo not shown) [Mecamylamine], the inhibition at 0.01 µM ([1]; Rattus norvegicus, mecamylamine 0.01 μM, read-out: inhibition of nicotine's effect (fractional release)) was 36%, the minimal effective concentration ([1]; Rattus norvegicus, read-out: lowest concentration to produce significant inhibition of nicotine's effect (fractional release, collapsed across time)) was 0.01 µM and the “Total [3H]overflow evoked by nicotine” value ([1]; mecamylamine 0.01 μM) was 3.57 ± 1.52. The “Total [3H]overflow evoked by nicotine” value ([1]; mecamylamine 0.1 μM, P<0.05 one-tailed) was 2.40 ± 0.87, the “Total [3H]overflow evoked by nicotine” value ([1]; mecamylamine 1 μM, P<0.05 two-tailed) was 1.59 ± 0.64 and the “Total [3H]overflow evoked by nicotine” value ([1]; mecamylamine 10 μM, P<0.05 two-tailed) was 1.02 ± 0.43. For the same compound, the “Total [3H]overflow evoked by nicotine” value ([1]; mecamylamine 100 μM, P<0.05 two-tailed) was 0.54 ± 0.32.
In the case of CN[C@@H](C)Cc1ccccc1 [Methamphetamine], the IC50 (reserpine site on VMAT2) is listed as 0.4 µM.
In the case of CN1CCC[C@H]1c1cccnc1 [Nicotine], the minimal effective concentration ([2]; Rattus norvegicus, read-out: lowest concentration which evoked a significant increase in [3H]overflow) is reported as 0.05 µM, the “time to peak fractional release after addition of drug” value ([2]; nicotine) is reported as 10 to 15 min and the peak fractional release ([2]; nicotine 100 μM) is reported as 2 % of total tritium in the slice. For the same compound, the “total [3H]overflow” value ([1]; mecamylamine 0 μM (control)) was 5.60 ± 1.20, the “inhibition of [3H]DA uptake into striatal synaptosomes” value [3] was “did not inhibit; also recorded: no inhibition of synaptosomal [^3 H]DA uptake was observed; also recorded: no effect was observed” and the “concentration giving significant inhibition of vesicular [3H]DA uptake” value [4] was 1 mM and ~ 1 mM. The Kd [5] was 0.001 to 0.007 µM, the “number of nicotinic receptors after chronic treatment” value [6] was “increase in the number of nicotinic receptors” and the locomotor activity [7] was “increase locomotor activity”. For the same compound, the conditioned place preference [8] was “produce conditioned place preference”, the “mechanism of nicotine-evoked DA release” value [9] was “calcium-dependent, mecamylamine-sensitive and mediated by nicotinic receptors” and the self-administration [10] was “avidly self-administered by rats”. For the same compound, the “number of nicotinic receptors after chronic treatment” value [11] was “increase in the number of nicotinic receptors”.
In the case of COc1cc2c(cc1OC)C1CC(=O)C(CC(C)C)CN1CC2 (stereo not shown) [Tetrabenazine], the “effect on spontaneous efflux of [3H]DA” value (rat brain vesicles) is listed as “does not alter spontaneous efflux”.
In the case of CC(N)Cc1ccccc1 (stereo not shown) [amphetamine], the “conditioned place preference in VMAT2 knockout vs wild-type mice” value (VMAT2 knockout mice) is listed as “diminished amphetamine-induced conditioned place preference”.
For C[C@H](N)Cc1ccccc1 [d-Amphetamine], the “lowest concentration to significantly inhibit [3H]DTBZ binding” value [12] was 10 µM, the “potency in releasing DA from synaptic vesicles vs lobeline” value [13] was 10 fold and the “lowest concentration to evoke [3H]DA release from vesicles” value ([13]; 8 min, 37° C.) was 1 µM. The EC50 ([13]; 8 min, 37° C., read-out: EC50, evoked [3H]DA release from synaptic vesicles) was 2.22 ± 0.13 µM, the Ki (human VMAT2 [14]) was about 2 µM and the Ki [15] was over 20 µM. For the same compound, the Ki (human VMAT2 [16]) was 300 µM and the “inhibition of monoamine oxidase” value (monoamine oxidase) was “inhibits monoamine oxidase”.
